Data reported in PMC6327044, “A chemical biology screen identifies a vulnerability of neuroendocrine cancer cells to SQLE inhibition” (Nature Communications, 2019).

Experiments:
Assay in all cases: cells
Set-up in all cases: species or system panel of 482 human cancer cell lines; ATPLite luminescence growth inhibition after treatment, nine-point dilution curve, 482 cancer cell lines, 384-well
Settings in all cases: 72 h, recommended growth medium
TE14_OESOPHAGUS = system: TE14_OESOPHAGUS
Experimental: (§1) Cells were seeded in recommended growth media in black 384-well tissue culture treated plates at 500 cells per well. Cells were equilibrated in assay plates via centrifugation and placed in incubators for 24 h before treatment. […] Treated assay plates were incubated with compounds for 72 h and subsequently were developed for endpoint analysis using ATPLite. Each compound was assessed using a nine-point dilution curve. Cells were defined as sensitive to a given compound based on GI75 < 2 μM with manual quality control of curve fit. GI75 is defined as a drug concentration that causes a 75% reduction in assay readout relative to dimethyl sulfoxide (DMSO)-treated controls. To identify novel cancer vulnerabilities, we screened a panel of 482 cell lines with a diverse set of metabolic inhibitors. […] Given that SCLC is thought to arise from neuroendocrine cells in the lung[9], we tested the NB-598 sensitivity in a panel of 42 SCLC cell lines. We calculated a quantitative metric of sensitivity for each cell line based on the area under the curve (AUC) of the mu/mu.max curve to more accurately capture the potency and extent of NB-598 effects. […] We categorized the SCLC cell lines as sensitive (5/42), moderate (11/42), and insensitive (26/42) (Fig. 1c and Supplementary Data 2) and focused all subsequent efforts on this indication. […] To further understand the patterns of sensitivity, we conducted RNA sequencing (RNA-Seq; Supplementary Data 3) and proteomic (Supplementary Data 4) characterization of the SCLC panel to identify unbiased expression signatures associated with enhanced NB-598 response (Supplementary Fig. 1 and Supplementary Fig. 2). Given the growing understanding that SCLC tumors can be further subdivided based on the status of lineage-defining transcription factors, ASLC1 and NEUROD1, we specifically investigated NB-598 response as the function of ASCL1 and NEUROD1 expression levels. […] To further dissect the NB-598 response within the ASCL1-high/NEUROD-low subset of 25 cell lines, we identified RNA-Seq and proteomics expression signatures associated with NB

HGC27_STOMACH = system: HGC27_STOMACH
Experimental: as §1

NCIH2106_LUNG = system: NCIH2106_LUNG
Experimental: as §1

[1] = system: HUNS1_HAEMATOPOIETIC_AND_LYMPHOID_TISSUE
Experimental: as §1

IM95_STOMACH = system: IM95_STOMACH
Experimental: as §1

NCIH1623_LUNG = system: NCIH1623_LUNG
Experimental: as §1

HCC1588_LUNG = system: HCC1588_LUNG
Experimental: as §1

EVSAT_BREAST = system: EVSAT_BREAST
Experimental: as §1

FARAGE_NS = system: FARAGE_NS
Experimental: as §1

[2] = system: SUDHL4_HAEMATOPOIETIC_AND_LYMPHOID_TISSUE
Experimental: as §1

NCIH1568_LUNG = system: NCIH1568_LUNG
Experimental: as §1

HCC70_BREAST = system: HCC70_BREAST
Experimental: as §1

[3] = system: U2932_HAEMATOPOIETIC_AND_LYMPHOID_TISSUE
Experimental: as §1

GSS_STOMACH = system: GSS_STOMACH
Experimental: as §1

NCIH2405_LUNG = system: NCIH2405_LUNG
Experimental: as §1

AU565_BREAST = system: AU565_BREAST
Experimental: as §1

SKNFI_AUTONOMIC_GANGLIA = system: SKNFI_AUTONOMIC_GANGLIA
Experimental: as §1

Work on `CCN(C/C=C/C#CC(C)(C)C)Cc1cccc(OCc2cc(-c3ccsc3)cs2)c1` [NB-598] yielded a GI50 (TE14_OESOPHAGUS) of 164 µM, a GI50 (HGC27_STOMACH) of 14.8 µM and a GI50 (NCIH2106_LUNG) of 0.0121 µM. It also gave a GI50 [1] of 0.17 µM, a GI50 (IM95_STOMACH) of 0.0118 µM and a GI50 (NCIH1623_LUNG) of 0.0194 µM. It also gave a GI50 (HCC1588_LUNG) of 5.16 µM, a GI50 (EVSAT_BREAST) of 32.4 µM and a GI50 (FARAGE_NS) of 0.0142 µM. The GI50 [2] was 10.6 µM, the GI50 (NCIH1568_LUNG) was 7.98 µM and the GI50 (HCC70_BREAST) was 16.3 µM. The GI50 [3] was 1.29 µM, the GI50 (GSS_STOMACH) was 12.3 µM and the GI50 (NCIH2405_LUNG) was 0.0394 µM. It also gave a GI50 (AU565_BREAST) of 399 µM and a GI50 (SKNFI_AUTONOMIC_GANGLIA) of 0.0151 µM.
